Source: the CheMixHub viscosity set
± gives the uncertainty stated by the source.

Assay: xn = mol fraction of the nth substance listed

Compound: CCNCCO + O
- viscosity (308.15 K, 101.3 kPa, x1 = 0.0797): 2.56 ± 0.06 mPa·s
- viscosity (308.15 K, 101.3 kPa, x1 = 0.168): 5.85 ± 0.13 mPa·s
- viscosity (308.15 K, 101.33 kPa, x1 = 0.019): 1.038 ± 0.087 mPa·s
- viscosity (308.15 K, 101.33 kPa, x1 = 0.0419): 1.559 ± 0.13 mPa·s
- viscosity (308.15 K, 101.33 kPa, x1 = 0.0686): 2.222 ± 0.18 mPa·s
- viscosity (308.15 K, 101.33 kPa, x1 = 0.1): 3.14 ± 0.26 mPa·s
- viscosity (313.15 K, 100 kPa, x2 = 0.55): 10.9 ± 0.2 mPa·s
- viscosity (313.15 K, 101.3 kPa, x1 = 0.0481): 1.422 ± 0.28 mPa·s
- viscosity (313.15 K, 101.3 kPa, x1 = 0.0797): 2.18 ± 0.05 mPa·s
- viscosity (313.15 K, 101.3 kPa, x1 = 0.1001): 2.74 ± 0.03 mPa·s
- viscosity (313.15 K, 101.3 kPa, x1 = 0.119): 3.122 ± 0.63 mPa·s
- viscosity (313.15 K, 101.3 kPa, x1 = 0.168): 4.78 ± 0.11 mPa·s
- viscosity (313.15 K, 101.3 kPa, x1 = 0.2): 5.5 ± 0.05 mPa·s
- viscosity (313.15 K, 101.3 kPa, x1 = 0.233): 6.544 ± 1.3 mPa·s
- viscosity (313.15 K, 101.3 kPa, x1 = 0.3001): 8.19 ± 0.07 mPa·s
- viscosity (313.15 K, 101.3 kPa, x1 = 0.4002): 10.32 ± 0.09 mPa·s
- viscosity (313.15 K, 101.3 kPa, x1 = 0.447): 10.85 ± 2.2 mPa·s
- viscosity (313.15 K, 101.3 kPa, x1 = 0.5): 11.49 ± 0.1 mPa·s
- viscosity (313.15 K, 101.3 kPa, x1 = 0.6001): 11.66 ± 0.1 mPa·s
- viscosity (313.15 K, 101.3 kPa, x1 = 0.7): 10.91 ± 0.1 mPa·s
- viscosity (313.15 K, 101.3 kPa, x1 = 0.8002): 9.46 ± 0.09 mPa·s
- viscosity (313.15 K, 101.3 kPa, x1 = 0.9001): 7.8 ± 0.07 mPa·s
- viscosity (313.15 K, 101.3 kPa, x2 = 0.3547): 10.6 ± 2.1 mPa·s
- viscosity (313.15 K, 101.33 kPa, x1 = 0.019): 0.927 ± 0.077 mPa·s
- viscosity (313.15 K, 101.33 kPa, x1 = 0.0419): 1.362 ± 0.11 mPa·s
- viscosity (313.15 K, 101.33 kPa, x1 = 0.0686): 1.896 ± 0.16 mPa·s
- viscosity (318.15 K, 101.3 kPa, x1 = 0.0797): 1.86 ± 0.05 mPa·s
- viscosity (318.15 K, 101.3 kPa, x1 = 0.168): 3.96 ± 0.09 mPa·s
- viscosity (318.15 K, 101.33 kPa, x1 = 0.019): 0.833 ± 0.069 mPa·s
- viscosity (318.15 K, 101.33 kPa, x1 = 0.0419): 1.201 ± 0.098 mPa·s
- viscosity (318.15 K, 101.33 kPa, x1 = 0.0686): 1.643 ± 0.13 mPa·s
- viscosity (318.15 K, 101.33 kPa, x1 = 0.1): 2.241 ± 0.18 mPa·s
- viscosity (323.15 K, 100 kPa, x2 = 0.55): 6.98 ± 0.12 mPa·s
- viscosity (323.15 K, 101.3 kPa, x1 = 0.0481): 1.093 ± 0.22 mPa·s
- viscosity (323.15 K, 101.3 kPa, x1 = 0.0797): 1.62 ± 0.04 mPa·s
- viscosity (323.15 K, 101.3 kPa, x1 = 0.1001): 2 ± 0.03 mPa·s
- viscosity (323.15 K, 101.3 kPa, x1 = 0.119): 2.225 ± 0.45 mPa·s
- viscosity (323.15 K, 101.3 kPa, x1 = 0.168): 3.34 ± 0.07 mPa·s
- viscosity (323.15 K, 101.3 kPa, x1 = 0.2): 3.68 ± 0.04 mPa·s
- viscosity (323.15 K, 101.3 kPa, x1 = 0.233): 4.39 ± 0.88 mPa·s
- viscosity (323.15 K, 101.3 kPa, x1 = 0.3001): 5.2 ± 0.05 mPa·s
- viscosity (323.15 K, 101.3 kPa, x1 = 0.4002): 6.29 ± 0.05 mPa·s
- viscosity (323.15 K, 101.3 kPa, x1 = 0.447): 6.977 ± 1.4 mPa·s
- viscosity (323.15 K, 101.3 kPa, x1 = 0.5): 6.88 ± 0.06 mPa·s
- viscosity (323.15 K, 101.3 kPa, x1 = 0.6001): 7.05 ± 0.06 mPa·s
- viscosity (323.15 K, 101.3 kPa, x1 = 0.7): 6.74 ± 0.06 mPa·s
- viscosity (323.15 K, 101.3 kPa, x1 = 0.8002): 6.18 ± 0.06 mPa·s
- viscosity (323.15 K, 101.3 kPa, x1 = 0.9001): 5.19 ± 0.05 mPa·s
- viscosity (323.15 K, 101.3 kPa, x2 = 0.3547): 6.882 ± 1.4 mPa·s
- viscosity (323.15 K, 101.33 kPa, x1 = 0.019): 0.755 ± 0.062 mPa·s
- viscosity (323.15 K, 101.33 kPa, x1 = 0.0419): 1.068 ± 0.087 mPa·s
- viscosity (323.15 K, 101.33 kPa, x1 = 0.0686): 1.438 ± 0.12 mPa·s
- viscosity (323.15 K, 101.33 kPa, x1 = 0.1): 1.934 ± 0.16 mPa·s
